US9605026B2, “Hydrogen-bond surrogate peptides and peptidomimetics for p53 reactivation” (New York University, priority 2013, dated 2017)

Experiments:
Format in all cases: cell-based, human
p53 [1] = experiment: Western blot of total and acetylated[K382] p53 in UMSCC74A cells; details: UMSCC74A (HPV-negative, p53 wildtype), 10 μM, 24 hours
From the text: FIG. 5A is an schematic illustration showing that CH1 has two distinct target sites. HIF1-α/p300 structures were used as guides to design helix mimetics that target site A and site B on the CH1 domain of p300. […] CH1iA (SEQ ID NO: 7) and CH1iB (SEQ ID NO: 8) were designed to mimic two helices from the C-terminal domain of HIF-1α. The peptides were locked into the helical conformation by the hydrogen bond surrogate method. FIG. 5C is a graph of p53 activity. UMSCC47 (left) and UMSCC74A (right) cells were co-transfected with a p53 Firefly luciferase reporter plasmid and a control Renilla luciferase plasmid. After 24 hours, cells were treated with control (vehicle), CH1iA (10 μM), or CH1iB (10 μM) for 24 hours. Firefly luciferase activity was normalized to Renilla luciferase activity to control for transfection efficiency. Data is normalized to control and presented as mean±SEM. *P<0.05, n=3. FIG. 5D is a western blot showing total and acetylated p53 levels. UMSCC47 (left) and UMSCC74A (right) cells were treated with control (vehicle), CH1iA (10 μM), or CH1iB (10 μM) for 24 hours. Cell lysates were immunoblotted with anti-p53 or anti-acetylated[K382]-p53 antibody. […] UMSCC47 (top panel) and UMSCC74A (bottom panel) cells were treated with control (vehicle), CH1iA (10 μM), or CH1iB (10 μM) for 24 hours. mRNA expression was determined using qPCR with validated TaqMan assays. […]

UMSCC47 cells = experiment: Cell proliferation (MTT) in UMSCC47 cells; details: for cell proliferation, single-agent: UMSCC47, 10 μM, 24-72 hours
From the text: (§1) FIG. 5A is an schematic illustration showing that CH1 has two distinct target sites. HIF1-α/p300 structures were used as guides to design helix mimetics that target site A and site B on the CH1 domain of p300. […] CH1iA (SEQ ID NO: 7) and CH1iB (SEQ ID NO: 8) were designed to mimic two helices from the C-terminal domain of HIF-1α. The peptides were locked into the helical conformation by the hydrogen bond surrogate method. FIG. 5C is a graph of p53 activity. UMSCC47 (left) and UMSCC74A (right) cells were co-transfected with a p53 Firefly luciferase reporter plasmid and a control Renilla luciferase plasmid. After 24 hours, cells were treated with control (vehicle), CH1iA (10 μM), or CH1iB (10 μM) for 24 hours. Firefly luciferase activity was normalized to Renilla luciferase activity to control for transfection efficiency. Data is normalized to control and presented as mean±SEM. *P<0.05, n=3. FIG. 5D is a western blot showing total and acetylated p53 levels. UMSCC47 (left) and UMSCC74A (right) cells were treated with control (vehicle), CH1iA (10 μM), or CH1iB (10 μM) for 24 hours. Cell lysates were immunoblotted with anti-p53 or anti-acetylated[K382]-p53 antibody. FIG. 5E is a pair of graphs of p300, p53, p21, miR-34a, and miR-200c expression. UMSCC47 (top panel) and UMSCC74A (bottom panel) cells were treated with control (vehicle), CH1iA (10 μM), or CH1iB (10 μM) for 24 hours. mRNA expression was determined using qPCR with validated TaqMan assays. Data is normalized to control cells and presented as mean±SEM. *P<0.01, control vs. CH1iB, n=3. FIG. 5F is a western blot showing HPV16 E6-p300 association. UMSCC47 cells were treated with control (vehicle), CH1iA (10 μM), or CH1iB (10 μM) for 24 hours. Cell lysates were extracted, immunoprecipitated with anti-p300 antibody, and immunoblotted with anti-E6 antibody. Cell lysates were immunoblotted with anti-E6 or anti-p300 antibody for input control. FIG. 5G is a set of graphs of cell proliferation. UMSCC47 (top left panel), UMSCC74A (top right panel), and IMR90 (human normal fibroblasts) (bottom panel) cells were treated with control (vehicle), CH1iA (10 μM), CH1iB (10 μM), cis-platinum (10 μM), CH1iA (10 μM) and cis-platinum (10 μM), or CH1iB (10 μM) and cis-platinum (10 μM) for 24, 48, or 72 hours. Data is normalized to Day 0 and presented as mean±SEM. *P<0.01, control vs. CH1iB or cis-platinum, **P<0.01 CH1iB or cis-platinum vs. CH1iB and cis-platinum, n=6.
FIG. 7A is a graph of p53 transcriptional activity. UMSCC47 cells were co-transfected with a p53 Firefly luciferase reporter plasmid and a control Renilla luciferase plasmid. After 24 hours, cells were treated with control (vehicle) or CH1iB-mut (10 μM) for 24 hours. Firefly luciferase activity was normalized to Renilla luciferase activity to control for transfection efficiency. Data is presented as mean±SEM. *P<0.05, n=5. FIG. 7B is a graph of cell proliferation. UMSCC47 cells were treated with control (vehicle), CH1iB-mut (10 μM), cis-platinum (10 μM), or CH1iB-mut (10 μM) and cis-platinum (10 μM) for 24 or 48 hours. Data is normalized to Day 0 and presented as mean±SEM. *P<0.01, control or CH1iB-mut vs. cis-platinum or cis-platinum+CH1iB-mut, n=6.
Cell proliferation was assessed using the MTT reagent (Roche Molecular Biochemicals, Nutley, N.J.) to detect metabolic active cells. Absorbance was measured at 570 nm in the Spectra Max 190 ELISA reader (Molecular Devices, Sunnyvale, Calif.) after overnight incubation. […]

p53 [2] = experiment: Western blot of total and acetylated[K382] p53 in UMSCC47 cells; details: 24 hours; for acetylated p53 levels / p53 accumulation (total p53 level): UMSCC47, 10 μM
From the text: as §1
FIG. 6A is a western blot showing total and acetylated p53 levels. UMSCC47 cells were treated with control (vehicle), CH1iB (10 μM), cis-platinum (10 μM), or CH1iB (10 μM) and cis-platinum (10 μM) for 24 hours. Cell lysates were immunoblotted with anti-p53 or anti-acetylated[K382]-p53 antibody. FIG. 6B is a graph of p53 transcriptional activity. UMSCC47 cells were co-transfected with a p53 Firefly luciferase reporter plasmid and a control Renilla luciferase plasmid. After 24 hours, cells were treated with control (vehicle), CH1iB (10 μM), cis-platinum (10 μM), or CH1iB (10 μM) and cis-platinum (10 μM) for 24 hours. Firefly luciferase activity was normalized to Renilla luciferase activity to control for transfection efficiency. Data is normalized to control and presented as mean±SEM. *P<0.01, control vs. CH1iB, cis-platinum or CH1iB+cis-platinum, **P<0.01 CH1iB or cis-platinum vs. CH1iB+cis-platinum, n=5. FIG. 6C is a graph of p300, p53, p21, miR-34a, and miR-200c expression. UMSCC47 cells were treated with control (vehicle), CH1iB (10 μM), cis-platinum (10 μM), or CH1iB (10 μM) and cis-platinum (10 μM) for 24 hours. mRNA expression was determined using qPCR with validated TaqMan assays. Data is normalized to control cells and presented as mean±SEM. *P<0.01, control vs. CH1iB, cis-platinum or CH1iB+cis-platinum, **P<0.01 CH1iB or cis-platinum vs. CH1iB+cis-platinum, n=3. FIG. 6D is a pair of graphs of apoptosis. […]

[3] = UMSCC47, CH1iB 10 μM with cis-platinum 10 μM

Substance	p53 levels (p53 [1])	effect on anti-proliferative efficacy of cis-platinum (combination) (UMSCC47 cells; UMSCC47, 10 μM with cis-platinum 10 μM)	cell proliferation, single-agent (UMSCC47 cells)	acetylated p53 levels (p53 [2])	p53 accumulation (total p53 level) (p53 [2])	effect of cis-platinum on p53 accumulation (p53 [2]; [3])	effect of cis-platinum on p53 acetylation (p53 [2]; [3])
XELA*RALDQ-NH2 (ELXRALDQ; HBS: 4-pentenoic acid, N-allylalanine; C-terminal amide; CH1iB) [X 4-pentenoic acid, A* N-allylalanine]	did not modulate	potentiated	inhibited	enhanced	enhanced	potentiated	potentiated
XTAA*DCEYNAR (TAXDCEYNAR; HBS: 4-pentenoic acid, N-allylalanine; CH1iA) [X 4-pentenoic acid, A* N-allylalanine, reference compound]	did not modulate		inactive	no effect	no effect		
